Test results as given in BindingDB's records for doi:10.7270/Q2DF6PMF (Nmmlsc, 2007).

Each molecule was assayed against T1, N-formyl peptide receptor 2 (Homo sapiens, UniProt P25090) (assay: FPRL1 binding inhibitor potency, dose response, cell-based, FPR counter-screen, fluorescent ligand (AID 520)).
T1 sequence (P25090 whole entry): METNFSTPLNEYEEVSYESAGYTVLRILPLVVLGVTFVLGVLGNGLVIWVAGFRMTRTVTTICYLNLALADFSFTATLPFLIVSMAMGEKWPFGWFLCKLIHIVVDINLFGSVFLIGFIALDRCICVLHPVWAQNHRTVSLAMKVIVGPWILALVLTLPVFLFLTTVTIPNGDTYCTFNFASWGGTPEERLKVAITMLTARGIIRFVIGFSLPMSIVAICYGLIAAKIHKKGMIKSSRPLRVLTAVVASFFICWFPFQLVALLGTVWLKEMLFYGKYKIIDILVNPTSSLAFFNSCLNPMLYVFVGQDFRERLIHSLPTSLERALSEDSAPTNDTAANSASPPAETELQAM

Row | Structure (SMILES) | IC50 | Ki
1 | C=CCN1C(=O)C2(c3ccccc31)C(C(=O)c1ccc3c(c1)OCCO3)C(=O)C(=O)N2CCCOC (configuration not stated) [(4'E)-1-allyl-4'-[2,3-dihydro-1,4-benzodioxin-6-yl(hydroxy)methylene]-1'-(3-methoxypropyl)spiro[indoline-3,5'-pyrrolidine]-2,2',3'-trione] | > 66.7 µM | > 40.3 µM
2 | CCOC(=O)N1CCC(NC(=O)c2cc(C(=O)Nc3ccc(OC)c(OC)c3)ccc2CO)CC1 [4-[[5-[(3,4-dimethoxyphenyl)carbamoyl]-2-methylol-benzoyl]amino]piperidine-1-carboxylic acid ethyl ester] | > 66.7 µM | –
3 | O=c1cc(N2CCc3ccccc32)[nH]c(=O)n1Cc1ccc(F)cc1 [MLS000045863] | > 66.7 µM | –
4 | O=C1Nc2ccccc2/C1=C1/SC(=S)N(CC2CCCO2)C1=O (configuration not stated) [(5Z)-5-(2-ketoindolin-3-ylidene)-3-(tetrahydrofurfuryl)-2-thioxo-thiazolidin-4-one] | > 66.7 µM | > 40.3 µM
5 | CCSc1nnc(NC(=O)CSc2nnc(Cc3cccn3C)n2CCc2ccccc2)s1 [MLS000092939] | > 66.7 µM | –
6 | C[N+]1(C)[C@@H]2CC(OC(=O)[C@H](CO)c3ccccc3)C[C@H]1[C@@H]1O[C@@H]12 (some centres not stated) [SCOPOLAMINE METHYL NITRATE] | > 66.7 µM | –
7 | O=S(=O)(Nc1cccc2ncccc12)c1cccs1 [MLS000057468] | > 66.7 µM | –
8 | Cc1ccc(Nc2ccc(C(=O)O)cc2N)cc1 [3-amino-4-(4-methylanilino)benzoic acid] | > 66.7 µM | –
9 | COc1ccc(C(=O)C2C(=O)C(=O)N(Cc3ccco3)C2c2ccc(OC)cc2OC)cc1 (configuration not stated) [(4E)-5-(2,4-dimethoxyphenyl)-1-(2-furanylmethyl)-4-[hydroxy-(4-methoxyphenyl)methylidene]pyrrolidine-2,3-dione] | > 66.7 µM | > 40.3 µM
10 | O=C(O)CC1Oc2ccc(Cl)cc2NC1=O (configuration not stated) [2-(6-chloranyl-3-oxidanylidene-4H-1,4-benzoxazin-2-yl)ethanoic acid] | > 66.7 µM | –
11 | COc1ccc(C(=O)C2C(=O)C(=O)N(c3nc(C)c(C)s3)C2c2ccco2)cc1 (configuration not stated) [(4Z)-1-(4,5-dimethyl-1,3-thiazol-2-yl)-5-(furan-2-yl)-4-[(4-methoxyphenyl)-oxidanyl-methylidene]pyrrolidine-2,3-dione] | > 66.7 µM | > 40.3 µM
12 | Cc1cc(N2C(=O)C(=O)C(C(=O)c3ccco3)C2c2cccnc2)no1 (configuration not stated) [3-(furan-2-carbonyl)-4-hydroxy-1-(5-methyl-1,2-oxazol-3-yl)-2-pyridin-3-yl-2H-pyrrol-5-one] | > 66.7 µM | > 40.3 µM
13 | Cc1ccc(C)c(C(=O)C2C(=O)C(=O)N(CCCn3ccnc3)C2c2ccncc2)c1 (configuration not stated) [(4E)-4-[(2,5-dimethylphenyl)-hydroxy-methylene]-1-(3-imidazol-1-ylpropyl)-5-(4-pyridyl)pyrrolidine-2,3-quinone] | > 66.7 µM | > 40.3 µM
14 | COc1ccc2cnn(-c3ccccc3)c(=O)c2c1OC [7,8-dimethoxy-2-phenyl-1(2H)-phthalazinone] | > 66.7 µM | –
15 | CC1CCN(c2nc(-c3ccccc3)c(C#N)c(=O)[nH]2)CC1 [4-hydroxy-2-(4-methylpiperidin-1-yl)-6-phenylpyrimidine-5-carbonitrile] | > 66.7 µM | –
16 | COc1ccccc1C1C(C(=O)c2ccccc2)C(=O)C(=O)N1CCO (configuration not stated) [(4Z)-1-(2-hydroxyethyl)-4-[hydroxy(phenyl)methylene]-5-(2-methoxyphenyl)pyrrolidine-2,3-quinone] | > 66.7 µM | > 40.3 µM
17 | Cc1nnc(SCc2cnc(-c3ccccc3)o2)nc1O [MLS000061907] | > 66.7 µM | –
18 | Cc1ccc(NC(=O)c2oc3ccc(S(=O)(=O)N4CCOCC4)cc3c2C)cc1C [MLS000046288] | > 66.7 µM | –
19 | Cc1cc(N2C(=O)C(=O)C(C(=O)c3ccc(F)cc3)C2c2cccc(Br)c2)no1 (configuration not stated) [(4E)-5-(3-bromophenyl)-4-[(4-fluorophenyl)-hydroxy-methylene]-1-(5-methylisoxazol-3-yl)pyrrolidine-2,3-quinone] | > 66.7 µM | > 40.3 µM
20 | O=C(Cn1cnc2c(cnn2-c2ccc(F)cc2)c1=O)OCc1ccccc1 [(phenylmethyl) 2-[1-(4-fluorophenyl)-4-oxidanylidene-pyrazolo[3,4-d]pyrimidin-5-yl]ethanoate] | > 66.7 µM | –
21 | COc1ccc(-c2cn3cccnc3n2)cc1NC(=O)C1CC1 [MLS000045944] | 7.6 µM | –
22 | CCC(=O)Nc1c(C#N)c2nc3ccccc3nc2n1-c1ccccc1C [SMR000039884] | > 66.7 µM | –
23 | O=C1C(=O)N(Cc2ccccc2)C(c2ccncc2)C1C(=O)c1ccco1 (configuration not stated) [1-Benzyl-4-(furan-2-carbonyl)-3-hydroxy-5-pyridin-4-yl-1,5-dihydro-pyrrol-2-one] | > 66.7 µM | > 40.3 µM
24 | N#Cc1c(C(F)(F)F)cc(-c2ccccc2)nc1SCc1nc(N)nc(N2CCOCC2)n1 [2-[(4-amino-6-morpholin-4-yl-1,3,5-triazin-2-yl)methylsulfanyl]-6-phenyl-4-(trifluoromethyl)pyridine-3-carbonitrile] | > 66.7 µM | –

Row | Structure (SMILES) | IC50 | Ki
25 | COc1ccc(Cl)cc1-n1c(=S)sc2c(O)nc(SCC(=O)NCC3CCCO3)nc21 (configuration not stated) [2-[[3-(5-chloranyl-2-methoxy-phenyl)-7-oxidanylidene-2-sulfanylidene-4H-[1,3]thiazolo[4,5-d]pyrimidin-5-yl]sulfanyl]-N-(oxolan-2-ylmethyl)ethanamide] | > 66.7 µM | –
26 | Cc1cccc(-n2nc3c(c2NC(=O)c2ccco2)CSC3)c1C [MLS000095654] | > 66.7 µM | –
27 | O=C(Cn1c(=O)oc2ccccc21)N1CCN(c2ccccc2)CC1 [3-[2-keto-2-(4-phenylpiperazino)ethyl]-1,3-benzoxazol-2-one] | > 66.7 µM | –
28 | O=C1C(=O)N(c2ncccn2)C(c2cccc(Cl)c2)C1C(=O)c1ccco1 (configuration not stated) [2-(3-chlorophenyl)-3-(furan-2-carbonyl)-4-hydroxy-1-pyrimidin-2-yl-2H-pyrrol-5-one] | > 66.7 µM | > 40.3 µM
29 | CC(C)CN(CC(C)C)C(=O)CS(=O)(=O)Cc1ccccc1 [2-(benzylsulfonyl)-N,N-diisobutylacetamide] | > 66.7 µM | –
30 | CCOc1ccc(C2C(C(=O)c3ccco3)C(=O)C(=O)N2CCCn2ccnc2)cc1 (configuration not stated) [2-(4-ethoxyphenyl)-3-(furan-2-carbonyl)-4-hydroxy-1-(3-imidazol-1-ylpropyl)-2H-pyrrol-5-one] | > 66.7 µM | > 40.3 µM
31 | CC(=O)OCCNc1cc(N2CCN(C)CC2)c2noc3c2c1C(=O)c1ccccc1-3 [MLS000118373] | 6.9 µM | –
32 | COC(=O)C1(S(=O)(=O)c2cccc3nsnc23)CC1 [1-(2,1,3-benzothiadiazol-4-ylsulfonyl)-1-cyclopropanecarboxylic acid methyl ester] | > 66.7 µM | –
33 | Cc1ccc(C(=O)C2C(=O)C(=O)N(CC(C)O)C2c2ccc(N(C)C)cc2)cc1 (configuration not stated) [(4E)-5-[4-(dimethylamino)phenyl]-1-(2-hydroxypropyl)-4-[hydroxy(p-tolyl)methylene]pyrrolidine-2,3-quinone] | > 66.7 µM | > 40.3 µM
34 | CC(C)(C)CC(=O)Nc1ccc(Nc2ccccc2)cc1 [3,3-dimethyl-N-(4-phenylazanylphenyl)butanamide] | > 66.7 µM | –
35 | Nc1ccc(Nc2ccccc2N)cc1 [(2-aminophenyl)-(4-aminophenyl)amine] | 15 µM | –
36 | COc1ccc(OC)c(NC(=O)C2C3CCC(C3=C(C)C)C2C(=O)O)c1 (configuration not stated) [MLS000110216] | > 66.7 µM | –
37 | CCC(Sc1nc2c(c(=O)[nH]1)CCC2)C(=O)Nc1cccc(OC)c1 (configuration not stated) [SMR000028729] | > 66.7 µM | –
38 | CCOC(=O)c1c(NC(=O)C2C3CCC(O3)C2C(=O)O)sc(C)c1-c1ccc(C)cc1 (configuration not stated) [2-[[[3-ethoxycarbonyl-5-methyl-4-(4-methylphenyl)-2-thiophenyl]amino]-oxomethyl]-7-oxabicyclo[2.2.1]heptane-3-carboxylic acid] | > 66.7 µM | –
39 | CCCCNC(=O)c1sc(=S)n2c1[nH]c(=O)c1ccccc12 [N-butyl-5-oxo-1-thioxo-4,5-dihydro[1,3]thiazolo[3,4-a]quinazoline-3-carboxamide] | > 66.7 µM | –
40 | Cc1ccsc1C1C2C(=O)CC(C)(C)CC2=Nc2ncnn21 (configuration not stated) [6,6-dimethyl-9-(3-methyl-2-thienyl)-1,5,7,9-tetrahydro-[1,2,4]triazolo[5,1-b]quinazolin-8-one] | > 66.7 µM | > 40.3 µM
41 | O=C(O)C1CC=CCC1C(=O)N1CCN(c2nc(-c3ccccc3)c3ccccc3n2)CC1 (configuration not stated) [6-[4-(4-phenylquinazolin-2-yl)piperazin-1-yl]carbonylcyclohex-3-ene-1-carboxylic acid] | > 66.7 µM | –
42 | Cc1ccc(C2C(C(=O)c3sc(C)nc3C)C(=O)C(=O)N2CCN2CCOCC2)o1 (configuration not stated) [3-(2,4-dimethyl-1,3-thiazole-5-carbonyl)-4-hydroxy-2-(5-methylfuran-2-yl)-1-(2-morpholin-4-ylethyl)-2H-pyrrol-5-one] | > 66.7 µM | > 40.3 µM
43 | Cc1ccc(C(=O)C2C(=O)C(=O)N(c3cc(C)on3)C2c2cccc(Br)c2)cc1 (configuration not stated) [(4E)-5-(3-bromophenyl)-1-(5-methyl-1,2-oxazol-3-yl)-4-[(4-methylphenyl)-oxidanyl-methylidene]pyrrolidine-2,3-dione] | > 66.7 µM | > 40.3 µM
44 | CCOC(=O)c1ccc(NC(=O)Nc2ccc3c4c(cccc24)C(=O)N3CC)cc1 [4-[(1-ethyl-2-keto-benzo[cd]indol-6-yl)carbamoylamino]benzoic acid ethyl ester] | > 66.7 µM | –
45 | O=C(Nc1nnc(-c2ccccc2Cl)o1)c1ccc(S(=O)(=O)N2CCCCCC2)cc1 [4-(1-azepanylsulfonyl)-N-[5-(2-chlorophenyl)-1,3,4-oxadiazol-2-yl]benzamide] | > 66.7 µM | –
46 | COc1ccc(NC(=O)C2C3CCC(C3)C2C(=O)O)cc1OC (configuration not stated) [MLS000061524] | > 66.7 µM | –
47 | COC(=O)COc1ccc2c(=O)c(Oc3ccccc3)c(C)oc2c1 [2-(4-keto-2-methyl-3-phenoxy-chromen-7-yl)oxyacetic acid methyl ester] | > 66.7 µM | –
